Laboratory results reported in PubChem BioAssay (NCI).
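Assay format: 96-well plates, 48-hour exposure. GI50: concentration for 50% inhibition of growth. TGI is the concentration that stops growth completely.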

Columns and labels:
Assay in all cases: NCI anticancer screen, dose series, 48 h
MOLT-4 leukemia = tested on: MOLT-4 leukemia
SN12C renal = tested on: SN12C renal
A498 renal = tested on: A498 renal
786-0 renal = tested on: 786-0 renal
ACHN renal = tested on: ACHN renal
SF-295 CNS = tested on: SF-295 CNS
A549 NSCLC = tested on: A549 NSCLC
DU-145 prostate = tested on: DU-145 prostate
HS 578T breast = tested on: HS 578T breast
NCI/ADR-RES ovarian = tested on: NCI/ADR-RES ovarian

Structure (SMILES)	TGI (MOLT-4 leukemia) [µM]	TGI (SN12C renal) [µM]	TGI (A498 renal) [µM]	TGI (786-0 renal) [µM]	TGI (ACHN renal) [µM]	TGI (SF-295 CNS) [µM]	TGI (A549 NSCLC) [µM]	TGI (DU-145 prostate) [µM]	GI50 (HS 578T breast) [µM]	TGI (HS 578T breast) [µM]	GI50 (NCI/ADR-RES ovarian) [µM]	TGI (NCI/ADR-RES ovarian) [µM]	GI50 (MOLT-4 leukemia) [µM]	GI50 (SN12C renal) [µM]	GI50 (786-0 renal) [µM]	GI50 (ACHN renal) [µM]	GI50 (SF-295 CNS) [µM]	GI50 (DU-145 prostate) [µM]	GI50 (A549 NSCLC) [µM]
CCN(CC)CCCNc1nccc2c(C)c3[nH]c4ccncc4c(=O)c3cc12	2.51	8.9	24	11.9	13	28.4	14.2												
Nc1nc(N)c(CCCCc2ccccc2)c(/C=C/c2ccc([N+](=O)[O-])cc2)n1	4.16	8.96		7.34	18.2	14.5	19.3												
CCC1=CCC(P(=O)(c2ccccc2)c2ccccc2)CC1C (stereo unspecified)	46.2	> 100	> 100	> 100		> 100	> 100												
C[C@H]1[C@H](C)CC[C@]2(C(=O)O)CCC3(COC(=O)/C=C/c4ccc(O)cc4)C(=CCC4[C@@]5(C)CC[C@H](O)C(C)(C)C5CC[C@]43C)[C@H]12 (stereo partly specified)	32.4	20.8	15.3	16	13.1	13.2	10.3												
CCCCCC1CC=CC(NC(=O)OCc2ccccc2)C1/C=C/CCCC1OCCO1 (stereo unspecified)	> 100	> 100	98.7	> 100	> 100	> 100	> 100												
CCCCCCCCCCCCCC(=O)NO	> 49	38.9	63.2	18.2	39.3	60.9	42.9	29.6											
Cc1ccc2c(c1)C(=O)/C(=C/c1cccc(OCC(=O)c3ccc(Cl)cc3)c1)CS2	8.32	62.7		24.6	21.2	12.1	> 100	> 100	1.54	4.42	2.68	9.02	2.69	14.6	11.3	8.72	3.17	21.9	33.4
NS(=O)(=O)c1ccc(-n2nc(-c3ccccc3)cc2-c2cc(O)ccc2O)cc1	> 100	> 100		> 100	> 100	> 100	> 100		> 100	> 100	> 100	> 100	8.71	> 100	90.8	89.8	> 100		> 100
CC1(C)C=C(N2CCN(C3=CC(C)(C)NC(C)(C)C3)CC2)CC(C)(C)N1	> 100	> 100	> 100	> 100	> 100	> 100	> 100												
C=C(C)C1CC=C(C)C(O)([C@@]2(O)C[C@H](C(=C)C)CC=C2C)C1 (stereo partly specified)	43.9	33.2	58.2	31.3	47.7	48.5	> 100												
CC(/C=C1\CCC(CN(C)C)C1=O)c1cccc(Br)c1 (stereo unspecified)	13.3	43.3	> 58.5	12.3	18	42.3	> 96.2												
c1ccc(N2CCN(CCCN3CCc4c([nH]c5ccccc45)C3c3cccnc3)CC2)cc1 (stereo unspecified)	> 100	99.2	> 100	> 100	> 100	> 100	> 100												
O=C(CC1(O)C(=O)Nc2c(Cl)cc(Cl)cc21)c1ccc([N+](=O)[O-])cc1 (stereo unspecified)	> 100	> 68	> 67.9	> 100	> 100	> 100	> 100												
C#Cc1cccc(Nc2ncnc3ccc(-c4cnc(N)nc4)cc23)c1		12.7		14.8	10.3	12.2	14.4	14.6	1.23	4.06	4.09	36.4		1.81	2.67	0.542	2.56	0.744	2.02
CC(O)(c1ccc(OCCC[N+](C)(C)C)cc1)C(C)(O)c1ccc(OCCC[N+](C)(C)C)cc1 (stereo unspecified)		> 100	> 100	> 100	> 100	> 100	> 100												
O=c1oc2c(O)c(O)cc3c(=O)oc4c(O)c(O)cc1c4c23	> 100	> 100	> 100	71.6	> 100	> 100	> 100						> 100				> 100		
CSC(=NC(=O)c1ccccc1)SCCSC(=NC(=O)c1ccccc1)SC	> 100	> 100	> 100	> 100	> 100	> 100	> 100												
C/C(CC(=O)Nc1cccc([N+](=O)[O-])c1)=N/NC(N)=S	> 100			> 100	> 100	> 100	> 100												
CN(CCc1ccccn1)/[N+]([O-])=N/O (tested in a mixture with another compound)	> 100	> 100		> 100	> 100	> 100	> 100												
CC1=C(C(=O)Nc2ccccc2C)C(c2ccccc2O)C(C(=O)Nc2ccccc2C)=C(C)N1	> 100	44	64.8	31.2	47.9	40.3	> 100												
COC(=O)/C=C(C)/C=C/c1c(C)c(C(C)=O)c(C)n1C	> 100	> 100	> 100	> 100	> 100	> 100	> 100												
O=C1C(c2ccccc2)=[N+]([O-])c2cc([N+](=O)[O-])ccc21	51.6	59.6	> 100	63.3	56.9	> 100	> 100												
CC1OC(OC2C(O)C(OCCc3ccc(O)c(O)c3)OC(CO)C2OC(=O)/C=C/c2ccc(O)c(O)c2)C(O)C(O)C1O (stereo unspecified)		36.8		36.3	37	> 100	> 100	27.4	> 100	> 100	> 100	> 100		20.5	14.5	18.9	31.5	13.5	> 100
